System: human platelets in platelet-rich plasma (PRP)
Experiment: Platelet aggregation inhibition assay (ADP-induced, aggregometer)
Format: cell-based
Details: fresh human PRP, 250,000 platelets/μL; aggregation induced with 20 micromolar ADP at 37° C.; inhibitor added about 1 min before ADP; read-out: IC50 (concentration of inhibitor that reduced the extent of platelet aggregation by 50%)
Experimental: Platelet aggregation studies were performed essentially as described by Zucker (1989, Methods in Enzymol. 169: 117-133). Briefly, platelet aggregation was assayed with or without putative platelet aggregation inhibitory compounds using fresh human platelet-rich plasma (PRP), comprising 250,000 platelets per microlitre. Whole human blood (36 mL) were freshly drawn from volunteers who were medication-free for at least 2 weeks prior to blood draw. Blood was drawn into 4 mL of a 0.1M sodium citrate solution and centrifuged (150 g for 20 min at 22° C.) to pellet red blood cells. The supernatant, comprising PRP, was removed and the remaining blood recentrifuged at 8000 g for 10 min to produce platelet-poor plasma (PPP; used to dilute the PRP to a final concentration of 250,000 platelets/μL). Alternatively, PPP was prepared by centrifugation of PRP for 1 min in a tabletop microcentrifuge. PPP is also used as a negative control for platelet aggregation.
Platelet aggregation was induced by the addition at 37° C. of a solution of adenosine diphosphate to a final concentration of 20 micromolar, and the extent of platelet aggregation monitored using a four channel aggregometer (Model IV Plus, Helena Laboratories, Beaumont, Tex.). […] Inhibition curves for a variety of disintegrins comprising the peptide sequence RGD was determined for each batch of platelets tested as positive controls.

Substance “CH2 CO-YD .Amp.GDCKGCG.amide [P734 peptide]” has an IC50 of 67 nM.

— patent publication US5951981A, “Thrombolytic agents with antithrombotic activity” (Diatide, Inc., priority 1996, dated 1999)
